One data set addresses T1, D(4) dopamine receptor (Homo sapiens, UniProt P21917).
T1 sequence (P21917 whole entry): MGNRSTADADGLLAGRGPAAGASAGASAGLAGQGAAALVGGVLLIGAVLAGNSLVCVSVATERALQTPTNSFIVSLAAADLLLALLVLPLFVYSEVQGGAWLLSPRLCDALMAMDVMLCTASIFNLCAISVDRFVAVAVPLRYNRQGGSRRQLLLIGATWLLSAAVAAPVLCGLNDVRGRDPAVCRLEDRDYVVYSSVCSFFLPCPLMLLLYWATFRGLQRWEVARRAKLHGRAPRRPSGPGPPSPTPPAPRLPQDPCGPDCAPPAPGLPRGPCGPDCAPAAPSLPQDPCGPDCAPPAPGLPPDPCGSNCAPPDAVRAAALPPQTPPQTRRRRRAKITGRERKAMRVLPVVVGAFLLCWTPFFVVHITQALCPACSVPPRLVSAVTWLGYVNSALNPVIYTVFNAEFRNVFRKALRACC
The data set is described as follows: Binding affinity to recombinant human dopamine receptor D4.

The target in a further data set is D(2) dopamine receptor (Homo sapiens, UniProt P14416). In words: Binding affinity towards cloned human Dopamine receptor D2 was determined.
Data set [1] has as its target T2, D(4) dopamine receptor (Homo sapiens) (UniProt P21917).
T2 sequence (whole entry): T1 sequence (P21917 whole entry)
The data set is described as follows: Association constant towards cloned human dopamine D4 receptor was determined.

Data set [2] in a line: Half life in human microsomes. The format is ADME, Microsome.

SMILES strings stand for the structures. Some results are limits rather than exact numbers.

Sequence of D(2) dopamine receptor (P14416 whole entry): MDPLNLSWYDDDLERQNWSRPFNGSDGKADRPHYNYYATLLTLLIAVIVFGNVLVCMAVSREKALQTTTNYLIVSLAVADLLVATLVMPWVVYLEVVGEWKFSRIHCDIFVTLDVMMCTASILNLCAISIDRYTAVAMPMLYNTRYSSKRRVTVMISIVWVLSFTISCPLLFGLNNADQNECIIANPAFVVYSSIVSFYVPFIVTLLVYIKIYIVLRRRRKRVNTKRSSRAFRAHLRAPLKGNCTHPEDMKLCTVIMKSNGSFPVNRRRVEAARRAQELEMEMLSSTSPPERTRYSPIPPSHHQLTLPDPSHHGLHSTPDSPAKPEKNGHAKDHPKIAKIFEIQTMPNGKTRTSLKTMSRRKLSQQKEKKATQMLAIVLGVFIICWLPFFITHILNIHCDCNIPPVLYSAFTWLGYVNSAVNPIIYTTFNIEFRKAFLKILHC

`Cc1sc(C)c2c1CC(C)(C)Cc1c[nH]nc1-2`: the Ki – broadly, the equilibrium dissociation constant of an inhibitor or competing ligand from its target – at D(4) dopamine receptor is 1300 nM; at D(2) dopamine receptor it was > 10000 nM.

For the compound `Cc1sc(C)c2c1CCc1cn(C)nc1-2`, on D(4) dopamine receptor, the Ki was 2870 nM.

On to `c1ccc2c(c1)CCCc1c[nH]nc1-2`, for which the inhibitory constant (Ki) on D(4) dopamine receptor and at D(2) dopamine receptor was > 10000 nM throughout.

Take `Clc1sc(Cl)c2c1CCCc1cnn(Cc3ccccc3)c1-2`: the Ki at D(4) dopamine receptor and at D(2) dopamine receptor was > 10000 nM in each case.

On to `Cc1sc(C)c2c1CCCc1c-2n[nH]c1CN(C)C`, for which, on D(4) dopamine receptor, the Ki worked out at 2560 nM.

As for `Cc1ccc(C)c2c1CCCc1c[nH]nc1-2`, the Ki on D(4) dopamine receptor is 425 nM; at D(2) dopamine receptor, > 10000 nM.

As for `Cc1sc(C)c2c1CCCc1cn(C)nc1-2`, the Ki worked out at 228 nM at D(4) dopamine receptor and 641 nM at D(2) dopamine receptor.

Consider `Cc1sc(C)c2c1SCc1cnn(C)c1-2`, for which the Ki is 3 nM at D(4) dopamine receptor and 111 nM on D(2) dopamine receptor. For the same compound, in data set [1], the pKa was 3.06. Further, in data set [2], the half-life (as a rule, how long it takes for the measured level to halve) was < 1 min.

For `Cc1sc(C)c2c1CCCc1cnn(-c3ccccc3)c1-2`, the Ki on D(4) dopamine receptor is 1580 nM; at D(2) dopamine receptor it was > 10000 nM.

Regarding `Cc1sc(C)c2c1CN(C)Cc1c[nH]nc1-2`, the Ki on D(4) dopamine receptor was > 10000 nM.

Turning to `CCn1ncc2c1-c1c(C)sc(C)c1CCC2`, the inhibitory constant (Ki) on D(4) dopamine receptor turned out to be 22 nM; at D(2) dopamine receptor it was 402 nM.

Regarding `Cc1sc(C)c2c1CCCc1cnn(C)c1-2`, the inhibition constant (Ki) came out at 2 nM on D(4) dopamine receptor and 176 nM at D(2) dopamine receptor.

For the compound `Cc1sc(C)c2c1CCCc1nncn1-2`, the inhibition constant (Ki) on D(4) dopamine receptor was 4320 nM; on D(2) dopamine receptor, > 10000 nM.

On to `Cc1sc(C)c2c1CCc1c[nH]nc1-2`, for which the Ki at D(4) dopamine receptor came out at 170 nM.

As to `Clc1sc(Cl)c2c1CCCc1c[nH]nc1-2`, the Ki came to 169 nM on D(4) dopamine receptor and 534 nM at D(2) dopamine receptor.

Take `CC(C)n1ncc2c1-c1c(Cl)sc(Cl)c1CCC2`: the Ki is 1560 nM on D(4) dopamine receptor and > 10000 nM at D(2) dopamine receptor.

Turning to `Cc1sc(C)c2c1CCCc1ncn(C)c1-2`, the Ki on D(4) dopamine receptor is 1290 nM; at D(2) dopamine receptor it was > 10000 nM.

For the compound `Cc1sc(C)c2c1CCc1cnn(C)c1-2`, the Ki at D(4) dopamine receptor turned out to be 26 nM; at D(2) dopamine receptor, 462 nM.

With `Cc1sc(C)c2c1CCCc1nnc(C)n1-2`, the inhibitory constant (Ki) was 462 nM at D(4) dopamine receptor and > 10000 nM at D(2) dopamine receptor.

With `Cc1oc(C)c2c1CCCc1c[nH]nc1-2`, on D(4) dopamine receptor, the Ki is 275 nM.

`CCCn1ncc2c1-c1c(C)sc(C)c1CCC2`: the Ki was determined as 97 nM on D(4) dopamine receptor and 885 nM at D(2) dopamine receptor.

As to `Cn1cc2c(n1)-c1ccccc1CCC2`, the Ki on D(4) dopamine receptor is 507 nM; at D(2) dopamine receptor, > 10000 nM.

Take `CCCn1ncc2c1-c1c(Cl)sc(Cl)c1CCC2`: the Ki on D(4) dopamine receptor was 3550 nM; at D(2) dopamine receptor, > 10000 nM.

Turning to `Cc1oc(C)c2c1CCCc1cnn(C)c1-2`, the results for the Ki at D(4) dopamine receptor and on D(2) dopamine receptor were 11 nM and 28 nM, respectively.

Consider `Cc1sc(C)c2c1CCCc1cnn(C(C)C)c1-2`, for which the Ki is 138 nM on D(4) dopamine receptor and 555 nM at D(2) dopamine receptor.

Turning to `Cn1ncc2c1-c1ccccc1CCC2`, the Ki on D(4) dopamine receptor and at D(2) dopamine receptor was > 10000 nM each time.

Regarding `Cc1sc(C)c2c1CCCc1nccn1-2`, the Ki at D(4) dopamine receptor is 301 nM; on D(2) dopamine receptor, > 10000 nM.

Regarding `CCn1ncc2c1-c1c(Cl)sc(Cl)c1CCC2`, the Ki was 168 nM at D(4) dopamine receptor and 489 nM at D(2) dopamine receptor.

Turning to `Cn1ncc2c1-c1c(Cl)sc(Cl)c1CCC2`, the Ki turned out to be 14 nM at D(4) dopamine receptor and 416 nM at D(2) dopamine receptor.

(Values after ChEMBL document CHEMBL1136188, “1H-Pyrazolo-[3,4-c]cyclophepta[1,2-c]thiophenes: a unique structural class of dopamine D4 selective ligands” (Bioorg Med Chem Lett, 2003).)
